Measurements: patent US8835476B2, “Synthesis of novel antimicrobials” (priority 2005, dated 2014)

Columns and labels:
[1] = molecular target: T1, recombinant E. coli LpxA (Escherichia coli, UniProt P0A722); assay: LpxA assay: acyl-UDP-GlcNAc formation from UDP-[3H]GlcNAc, TLC; assay type: biochemical; conditions: for inhibition at 5000 µM: 5 mM compound, FIG. 8
T1 construct: 6xHis (C); made in house; host or cells: E. coli BL21 (pET23b)
Description: The lpxA gene was amplified from an E. coli genomic library and inserted into a pET23b vector using standard recombinant DNA methodology. The 5′ oligonucleotide for amplification of the LpxA open reading frame was 5′-[…]-3′ (SEQ ID NO. 1) and contains a BamHI restriction enzyme site upstream of the LpxA ATG start codon and the 3′ oligonucleotide was 5′-[…]-3′ (SEQ ID NO. 2) and contains a XhoI restriction enzyme site downstream of the final codon of the LpxA open reading frame. Primers were custom synthesized. The primers were designed such that digestion of the amplification product would result in addition of a C-terminal 6×-His tag in frame with the LpxA open reading frame. Specifically, E. coli genomic DNA was isolated and an amplification reaction was carried out as follows: 33 μl water, 5 μl 10× reaction buffer, 1.5 μl of 50 mM magnesium sulfate, 3 μl of 10 mM dNTPs, 3 μl of a 50 μM solution of the 5′ LpxA primer, 3 μl of a 50 μM solution of the 3′ LpxA primer, 0.5 μl of E. coli genomic DNA solution, and 1 μl of polymerase. The reaction conditions were as follows: 94° C. for 2 minutes; followed by 30 cycles of 94° C. for 30 seconds, 50° C. for 30 seconds, 68° C. for 1.5 minutes, followed by an extension at 68° C. for 7 minutes. The resulting LpxA product was separated from other DNA on a 0.8% agarose gel and isolated from the gel. The LpxA open reading frame was cloned into a topoisomerase I-activated vector and transformed into E. coli. […] The newly synthesized plasmid containing the BamHI- and XhoI-flanked LpxA open reading frame and plasmid pET23a were digested with BamHI and XhoI at 37° C. for 2 hours, DNA was separated by agarose gel electrophoresis, isolated from the gel, and ligated. Ligation reactions were transformed into chemically competent E. coli and plasmid DNA was isolated. Restriction mapping was performed to determine which plasmids contained the LpxA open reading frame. To remove the T7 epitope coding sequence from the 5′end of the LpxA open reading frame, the pET23a plasmid containing the LpxA open reading frame was digested with the restriction enzymes BamHI and XhoI and a pET23b plasmid was digested with BglII and XhoI, DNA was separated by agarose gel electrophoresis, isolated from the gel, and ligated. Ligation reactions were transformed into chemically competent E. coli and plasmid DNA was isolated. Restriction mapping was performed to assess plasmids containing the LpxA open reading frame.
A 5 ml culture of E. Coli BL21 cells expressing the LpxA-6×His plasmid was grown overnight at 37° C. in LB medium containing 50 μg/ml ampicillin and 34 μg/ml chloramphenicol, then subcultured into 500 ml of the same medium and grown at 37° C. until A600=0.6. LpxA expression was induced by addition of 0.5 mM IPTG for three hours. The cells were centrifuged at 7 000×g for 10 minutes at 4° C. and lysed using a mild, nonionic detergent. The soluble fraction containing LpxA was added to 1 ml of nickel affinity resin in a 15 ml Falcon tube; the resin was washed extensively with extraction/wash buffer (50 mM Na-phosphate (pH 7.0) and 300 mM NaCl) prior to use. This mixture was incubated on a rotating platform at low speed for 20 minutes at room temperature. The resin was centrifuged at 1000 rpm in a bench top centrifuge for 2 min, washed twice (10 min each) with 10 ml of extraction/wash buffer, resuspended in 10 ml of extraction/wash buffer, and transferred to a 10 ml polypropylene disposable protein purification column. The column was eluted with 5 ml of 50 mM Na-phosphate (pH 7.0) containing 300 mM NaCl and 150 mM imidazole, collected in 1 ml fractions. The eluate was analysed by SDS-PAGE and was visualised using a protein stain (FIG. 7 inset).
Recombinant Vibrio harveyi acyl carrier protein was prepared from a GST fusion protein as described previously (Flaman et al., 2001). […]

[2] = test system: E. coli BL21 cells; assay: Inhibition of E. coli growth in liquid culture (OD 600 nm); assay type: cell-based; conditions: for growth inhibitory activity, E. coli liquid culture: only at the highest concentration tested (1 mM); for growth inhibitory activity, E. coli liquid culture / growth of E. coli in liquid culture: FIG. 11
Procedure: Compounds to be tested were dissolved in ethanol or DMSO and subsequently diluted into of Luria broth. The final concentration of ethanol (2%, v/v) or DMSO (1%, v/v) had minimal effect on growth rate. Culture tubes were subsequently inoculated with E. coli BL21 or D22 cells to an optical density (at 600 nm) of 0.01 and incubated on a rotary shaker at 37° C. The optical density at 600 nm of 100 μl samples was measured at indicated time points.

[3] = test system: LPS synthesis in E. coli strain D22; assay: In vivo LPS synthesis: [3H]galactose incorporation into acid-precipitable material; assay type: cell-based; conditions: 0.1 mM, FIG. 10B
Procedure: LpxA catalyzes the first step in the synthesis of lipid A (the hydrophobic anchor of LPS), which is essential for the growth and pathogenesis of many gram-negative bacteria. The inhibition of LpxA activity would therefore result in decreased synthesis of LPS. To measure the synthesis of LPS in vivo, the incorporation of radiolabelled galactose into acid-precipitable material was determined. The E. coli strain used for these studies was D22 (obtained from the E. coli Genetic Stock Center), which contains a mutation in the LpxC gene (lpxC101; Normark et al., 1969, J Bacteriol 97, 1334). Strains harbouring this mutation have an increased susceptibility to antibiotics, in addition to producing approximately 30% less LPS (Grundstrom et al., 1980, J Bacteriol 144, 884.). Bacteria were grown in Luria broth to early-log phase, at which point, 500 μl was transferred to a culture tube containing 1 μl of [^3H]galactose (final concentration, 0.2 mM, 20 μCi/μmol) and mixed. Cultures were incubated at 30° C. for 75 minutes with shaking at 220 rpm. Incorporation was terminated by adding 400 μl of labelled culture to 44.4 μl of 100% trichloroacetic acid (TCA, 10% final concentration) in a 1.5 ml microcentrifuge tube. Tubes were vortexed, incubated on ice for 30 minutes, then centrifuged at 14 000 rpm for 5 minutes at room temperature. The pellet was rinsed twice with 1 ml of ice-cold 10% TCA, resuspended in 50 μl of formic acid, and transferred to a scintillation vial for counting.
Compounds to be tested were dissolved in DMSO and added to the bacterial culture prior to labelling with galactose, and LPS synthesis was determined as described previously. The final concentration of DMSO (1%, v/v) had minimal effect on LPS synthesis.

T1 sequence (P0A722 whole entry): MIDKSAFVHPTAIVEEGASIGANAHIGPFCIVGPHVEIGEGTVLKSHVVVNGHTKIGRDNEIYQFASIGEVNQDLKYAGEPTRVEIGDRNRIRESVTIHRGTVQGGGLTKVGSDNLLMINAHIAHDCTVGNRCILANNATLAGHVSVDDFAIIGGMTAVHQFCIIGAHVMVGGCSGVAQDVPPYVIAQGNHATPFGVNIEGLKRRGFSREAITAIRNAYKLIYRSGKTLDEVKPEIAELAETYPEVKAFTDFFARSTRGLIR

SMILES: Cn1nnc(-c2cc(C(=O)O)sc2-c2ccc(F)cc2)n1 [DNM-123, 5-(4-fluorophenyl)-4-(2-methyl-2H-tetrazol-5-yl)thiophene-2-carboxylic acid]
- inhibition at 500 µM ([1]; 500 μM, FIG. 9): ~60%
- inhibition at 5000 µM [1]: > 80%
- growth inhibitory activity, E. coli liquid culture [2]: Substantial growth inhibitory activity

SMILES: CCOC(=O)c1cc(-c2nnn[nH]2)c(-c2ccc(F)cc2)s1 [DNM-124, 5-(4-Fluoro-phenyl)-4-(1H-tetrazol-5-yl)-thiophene-2-carboxylic acid ethyl ester]
- inhibition at 5000 µM [1]: > 80%
- growth inhibitory activity, E. coli liquid culture [2]: Substantial growth inhibitory activity

SMILES: Fc1ccc(-c2cc(-c3nnn[nH]3)c(-c3ccc(F)cc3)s2)cc1 [DNM-131, 5-(2,5-Bis(4-fluorophenyl)thiophen-3-yl)-1H-tetrazole]
- inhibition at 5000 µM [1]: > 80%
- inhibition of LpxA activity ([1]; concentrations above 500 μM, FIG. 9): almost complete inhibition
- decrease of LPS synthesis [3]: approximately 70%
- growth of E. coli in liquid culture ([2]; 10 μM): partial inhibition
- growth of E. coli in liquid culture ([2]; 0.1 or 1 mM): no growth

SMILES: O=C(O)c1sc(-c2ccc(F)cc2)cc1-c1nnn[nH]1 [DNM-141, 5-(4-Fluoro-phenyl)-3-(1H-tetrazol-5-yl)-thiophene-2-carboxylic acid]
- inhibition at 5000 µM [1]: > 80%
- growth inhibitory effect, E. coli liquid culture ([2]; concentrations tested in FIG. 11): no apparent effect

SMILES: Cn1nnc(-c2cc(-c3ccc(F)cc3)sc2C(=O)O)n1 [DNM-142, 5-(4-Fluoro-phenyl)-3-(2-methyl-2H-tetrazol-5-yl)-thiophene-2-carboxylic acid]
- inhibition at 5000 µM [1]: > 70%
